Reference: PMC9866630, “Synthesis, Biological Evaluation and Molecular Modeling Studies of Naphthoquinone Sulfonamides and Sulfonate Ester Derivatives as P2X7 Inhibitors” (Molecules, 2023)

How the values were obtained:
[1] = system: P2X7R; parameters: method as in PMID 24314880; conditions: read-out: EC50 for P2X7R activation; cited from earlier work
[2] = biological target: T1, mP2X7R (Mus musculus, UniProt Q9Z1M0); test: ATP-induced IL-1β release ELISA in mouse peritoneal macrophages; assay type: cell-based; conditions: LPS priming, ATP 30 min
T1 construct: P2X7 receptor expressed in peritoneal macrophages; endogenous in cells; host or cells: mouse peritoneal macrophages (primary)
T1 sequence (Q9Z1M0 1-595): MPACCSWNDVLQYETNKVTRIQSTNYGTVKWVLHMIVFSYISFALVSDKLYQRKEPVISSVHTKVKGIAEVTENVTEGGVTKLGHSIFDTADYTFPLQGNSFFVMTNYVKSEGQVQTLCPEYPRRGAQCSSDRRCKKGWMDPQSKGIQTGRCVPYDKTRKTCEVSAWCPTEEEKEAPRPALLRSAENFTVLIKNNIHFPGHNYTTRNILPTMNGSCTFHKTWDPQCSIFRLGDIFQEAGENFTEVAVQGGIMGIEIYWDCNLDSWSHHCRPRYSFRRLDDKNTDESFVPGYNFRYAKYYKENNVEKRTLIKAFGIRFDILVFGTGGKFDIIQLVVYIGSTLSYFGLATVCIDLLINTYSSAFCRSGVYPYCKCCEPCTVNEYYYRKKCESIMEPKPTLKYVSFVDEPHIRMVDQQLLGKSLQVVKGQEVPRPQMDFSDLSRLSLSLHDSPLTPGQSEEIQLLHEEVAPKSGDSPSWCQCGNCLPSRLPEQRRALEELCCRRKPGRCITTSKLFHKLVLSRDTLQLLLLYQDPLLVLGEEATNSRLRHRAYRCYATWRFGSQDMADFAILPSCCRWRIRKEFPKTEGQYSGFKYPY
Protocol: (§1) The monocytic THP-1 cell line used in this experiment was donated by the Laboratory of Applied Pharmacology, Institute of Drug Technology (Farmanguinhos), Rio de Janeiro, Brazil. Cells were plated at 2 × 10^5 cells/well in 96-well culture plates maintained in RPMI containing 10% fetal bovine serum (FBS), penicillin (100 U/mL), and streptomycin ([…]) in a humidified 5% CO2 atmosphere at 37 °C. Then, the cells were primed with Escherichia coli lipopolysaccharide (LPS, serotype 0127: B8) four hours before ATP stimulation for 30 min. Mouse peritoneal macrophages were primed with 10 ng/mL interferon-γ (IFN-γ) for 24 h and posteriorly stimulated with Escherichia coli lipopolysaccharide (LPS, serotype 0127: B8). The P2X7R antagonist A740003 and naphthoquinone derivatives were preincubated for 30 min before ATP addition. IL-1β was determined according to a standard kit (Bioscience, San Diego, CA, USA and Abcam, Cambridge Biomedical Campus, Cambridge, UK).

[3] = biological target: T2, hP2X7R (Homo sapiens, UniProt Q99572); test: ATP-induced IL-1β release ELISA in THP-1 cells; assay type: cell-based; conditions: human THP-1 cells, LPS 4 h, ATP 30 min
T2 construct: The monocytic THP-1 cell line used in this experiment was donated; endogenous in cells; host or cells: THP-1 human monocytic cell line
T2 sequence (Q99572 1-595): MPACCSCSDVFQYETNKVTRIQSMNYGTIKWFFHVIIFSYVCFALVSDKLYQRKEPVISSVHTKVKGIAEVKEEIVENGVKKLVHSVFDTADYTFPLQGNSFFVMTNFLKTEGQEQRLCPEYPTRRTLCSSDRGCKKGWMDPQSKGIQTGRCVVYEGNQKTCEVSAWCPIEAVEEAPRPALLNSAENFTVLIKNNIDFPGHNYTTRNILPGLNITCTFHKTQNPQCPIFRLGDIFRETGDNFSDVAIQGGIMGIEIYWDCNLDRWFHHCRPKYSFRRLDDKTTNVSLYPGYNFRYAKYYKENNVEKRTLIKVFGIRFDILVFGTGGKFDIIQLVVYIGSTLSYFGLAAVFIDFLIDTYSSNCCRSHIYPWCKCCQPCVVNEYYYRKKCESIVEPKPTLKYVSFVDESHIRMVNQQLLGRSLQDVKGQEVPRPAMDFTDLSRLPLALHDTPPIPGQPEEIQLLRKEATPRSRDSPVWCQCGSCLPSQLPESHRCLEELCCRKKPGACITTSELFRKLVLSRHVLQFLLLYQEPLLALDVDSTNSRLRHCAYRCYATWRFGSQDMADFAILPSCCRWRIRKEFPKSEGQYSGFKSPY
Protocol: as §1

[4] = biological target: T3, P2X7 receptor (Mus musculus, UniProt Q9Z1M0); test: ATP-induced propidium iodide dye uptake assay (P2X7R-associated pore formation); assay type: cell-based; conditions: pretreatment 10 min, 5 mM ATP 15 min, peritoneal macrophages; for Inhibition of ATP-induced PI uptake / inhibition at 10 µM: 10 µM; for inhibition at 10 µM: P2X7, read-out: Inhibition of ATP-induced PI uptake; for IC50: read-out: IC50 ATP-induced PI uptake
T3 construct: P2X7 receptor expressed in peritoneal macrophages; endogenous in cells; host or cells: mouse peritoneal macrophages (primary)
T3 sequence (Q9Z1M0 1-595): T1 sequence (Q9Z1M0 1-595)
Protocol: (§2) The animals used in these experiments were furnished by the animal breeding unit at Pavilion Hélio and Peggy Pereira at FIOCRUZ/IOC. The Institutional Animal Ethics Committee approved all experimental protocols under number L039-2016. Peritoneal macrophages were isolated from euthanized mice (weighing between 20 and 30 g) by injection of 10 mL phosphate-buffered saline (PBS) into the peritoneum of each animal. Then, the solution was completely removed from the peritoneal cavity using a syringe and transferred to 50 mL sterile tubes. Tubes were centrifuged at 1500 rpm for 5 min. The supernatant was discarded, and the pellet was resuspended in RPMI medium supplemented with 10% SFB and 1% antibiotic. The cells were counted and seeded in plates. After 40 min, the supernatant from each well was discarded to remove cells other than macrophages, and then RPMI medium was added. The macrophages were maintained in RPMI medium supplemented with 10% SFB and 1% antibiotic in a humid atmosphere at 37 °C containing 5% CO2 during the experiments.
To evaluate P2X7R-associated pore formation, a propidium iodide (PI) uptake assay was used. Peritoneal macrophages (3.0 × 10^5/well) were incubated with naphthoquinone derivatives and the inhibitor BBG (Brilliant Blue G, Sigma-Aldrich) at 10 µM and 750 nM, respectively, for 10 min. Subsequently, cells were exposed to 5 mM ATP for 15 min, and in the last 5 min, they were incubated with 1 µM PI dye. At the end of the incubation period, fluorescence was measured using a SpectraMax M5 spectrophotometer at 493/636 nm (excitation/emission). Compounds with inhibition values higher than 50% were selected to evaluate their inhibitory activity at varying concentrations. The inhibition curve was obtained using compounds at concentrations of 0.01 µM, 1 µM, 10 µM, 50 µM, and 100 µM. The controls and the procedure were the same.

[5] = system: mouse peritoneal cells; test: LDH release cytotoxicity assay; assay type: cell-based; conditions: 24 h, increasing concentrations
Protocol: as §2
Peritoneal macrophages (3.0 × 10^5 cells/well) were grown in 96-well plates and kept in an oven at 37 °C under a 5% CO2 atmosphere. […] The assay was finished by the addition of the LDH kit’s reagent (Kit CytoTox 96® Non-Radioactive Cytotoxicity Assay, Promega, Madison, WI, USA), prepared according to the manufacturer’s instructions. After 30 min of reaction, a stop solution was added, and the absorbance was measured at 490 nm.

[6] = system: ATP-induced paw edema; test: ATP-induced paw edema assay; assay type: in vivo, Swiss Webster mice; conditions: mice, intraperitoneal pretreatment, intra-plantar ATP, edema measured 30 min after ATP
Protocol: Paw edema in mice was induced by intra-plantar administration of ATP (10 mg/paw) for 30 min. Animals were pretreated intraperitoneally with the standard P2X7R antagonist A740003 (1 mg/kg) and the selected compounds PS01, PS02, PS03, PS09, and PS10 (1 mg/kg) for 60 min before ATP administration. Edema formation was determined with a mouse plethysmometer (UGO Basile, Gemonio, Italy) before ATP injection compared with saline injection in the contralateral paw edema.

Row | Structure (SMILES) | IC50 [2] | IC50 [3] | Inhibition of ATP-induced PI uptake [4] | also measured
1 | Nc1ncnc2c1ncn2[C@@H]1O[C@H](COP(=O)(O)OP(=O)(O)OP(=O)(O)O)[C@@H](O)[C@H]1O [ATP, Adenosine triphosphate] |  |  |  | EC50 [1]: > 100 µM
2 | CCOc1ccc(Nc2ccc(/C(=C3C=C/C(=[N+](/CC)Cc4cccc(S(=O)(=O)[O-])c4)C=C/3C)c3ccc(N(CC)Cc4cccc(S(=O)(=O)O)c4)cc3C)cc2)cc1 [BBG, Brilliant Blue G, reference compound] | 24 ± 3 µM | 16 ± 2 µM |  | 
3 | COc1ccc(CC(=O)NC(N=C(NC#N)Nc2cccc3ncccc23)C(C)(C)C)cc1OC (stereo not shown) [Compound A740003, reference compound] | 0.9 ± 0.1 µM | 0.85 ± 0.1 µM | inhibited the ATP effect | 
4 | O=C1C=C(Nc2ccc(NS(=O)(=O)c3ccccc3)cc2)C(=O)c2ccccc21 [PS01] | 5 ± 1 µM | 4 ± 2 µM |  | inhibition at 10 µM [4]: > 50%; IC50 [4]: 1 ± 0.1 µM; IC50 values (CC50), LDH activity [5]: 201 ± 11 µM; ID50 ATP−induced edema formation [6]: 0.128 ± 0.016 µg/kg
5 | O=C1C=C(Nc2ccc(NS(=O)(=O)c3ccc(F)cc3)cc2)C(=O)c2ccccc21 [PS02] | 3 ± 0.2 µM | 3 ± 0.3 µM |  | inhibition at 10 µM [4]: > 50%; IC50 [4]: 0.3 ± 0.003 µM; IC50 values (CC50), LDH activity [5]: 298 ± 16 µM; ID50 ATP−induced edema formation [6]: 0.093 ± 0.008 µg/kg
6 | Cc1ccc(S(=O)(=O)Nc2ccc(NC3=CC(=O)c4ccccc4C3=O)cc2)cc1 [PS03] | 1.5 ± 0.4 µM | 1 ± 0.4 µM |  | inhibition at 10 µM [4]: > 50%; IC50 [4]: 0.07 ± 0.003 µM; IC50 values (CC50), LDH activity [5]: 322 ± 20 µM; ID50 ATP−induced edema formation [6]: 0.067 ± 0.005 µg/kg
7 | O=C1C=C(Nc2ccc(NS(=O)(=O)c3ccc4ccccc4c3)cc2)C(=O)c2ccccc21 [PS04] |  |  | did not show inhibitory effects | 
8 | O=C1C=C(Nc2ccc(NS(=O)(=O)c3ccc([N+](=O)[O-])cc3)cc2)C(=O)c2ccccc21 [PS05] |  |  | did not show inhibitory effects | 
9 | O=C1C(Cl)=C(Nc2ccc(NS(=O)(=O)c3ccccc3)cc2)C(=O)c2ccccc21 [PS06] |  |  | did not show inhibitory effects | 

The next lines start with results.

Row | IC50 [2] | IC50 [3] | Inhibition of ATP-induced PI uptake [4] | Structure (SMILES) | also measured
10 |  |  | did not show inhibitory effects | Cc1ccc(S(=O)(=O)Nc2ccc(NC3=C(Cl)C(=O)c4ccccc4C3=O)cc2)cc1 [PS07] | 
11 |  |  | did not show inhibitory effects | O=C1C(Cl)=C(Nc2ccc(NS(=O)(=O)c3ccc(F)cc3)cc2)C(=O)c2ccccc21 [PS08] | 
12 | 0.09 ± 0.01 µM | 0.02 ± 0.002 µM |  | O=C1C(Cl)=C(Nc2ccc(NS(=O)(=O)c3ccc4ccccc4c3)cc2)C(=O)c2ccccc21 [PS09] | inhibition at 10 µM [4]: > 50%; IC50 [4]: 0.008 ± 0.0001 µM; IC50 values (CC50), LDH activity [5]: 401 ± 18 µM; ID50 ATP−induced edema formation [6]: 0.0098 ± 0.0007 µg/kg
13 | 0.7 ± 0.1 µM | 0.3 ± 0.06 µM |  | O=C1C(Cl)=C(Nc2ccc(NS(=O)(=O)c3ccc([N+](=O)[O-])cc3)cc2)C(=O)c2ccccc21 [PS10] | inhibition at 10 µM [4]: > 50%; IC50 [4]: 0.01 ± 0.002 µM; IC50 values (CC50), LDH activity [5]: 351 ± 21 µM; ID50 ATP−induced edema formation [6]: 0.0136 ± 0.016 µg/kg
14 |  |  | did not show inhibitory effects | NC1=CC(=O)c2cccc(OS(=O)(=O)c3ccccc3)c2C1=O [PS11] | 
15 |  |  | did not show inhibitory effects | Cc1ccc(S(=O)(=O)Oc2cccc3c2C(=O)C(N)=CC3=O)cc1 [PS12] | 
16 |  |  | did not show inhibitory effects | NC1=CC(=O)c2cccc(OS(=O)(=O)c3ccc(F)cc3)c2C1=O [PS13] | 
17 |  |  | did not show inhibitory effects | NC1=CC(=O)c2cccc(OS(=O)(=O)c3ccc4ccccc4c3)c2C1=O [PS14] | 
18 |  |  | did not show inhibitory effects | NC1=CC(=O)c2cccc(OS(=O)(=O)c3ccc([N+](=O)[O-])cc3)c2C1=O [PS15] | 
